Source: US20070010485A1 (priority 2005, published 2007)
Where a name gives a salt, the structure may show the parent alone.

Key:
[1] = test system: P-gp expressing CD33(+) leukemia cells; details: cited from earlier work
[2] = use of CAPTISOL

Row | increase in water solubility with CAPTISOL [2] [fold] | Compound | reversal of resistance to Mylotarg [1]
1 | – | O=C(C(c1ccccc1)c1ccccc1)N1CCN(CC(O)COc2cccc3ncccc23)CC1.O=C(O)/C=C/C(=O)O (centres unmarked) [MS-209] | reverse the resistance to Mylotarg
2 | > 5 | OC(COc1cccc2ncccc12)CN1CCN([C@@H]2c3ccccc3[C@@H]3[C@H](c4ccccc42)C3(F)F)CC1 (some centres unmarked) [zosuquidar trihydrochloride] | –
